These results are taken from the supplement of paper PMC10307832.

Experiment in all cases: relative viability (nuclei count vs DMSO), 5 days (fraction); higher = more cells survive
Compound in test [1]: CC(C)N(CCCNC(=O)Nc1ccc(C(C)(C)C)cc1)C[C@H]1O[C@@H](n2ccc3c(N)ncnc32)[C@H](O)[C@@H]1O + CCNC(=O)c1noc(-c2cc(C(C)C)c(O)cc2O)c1-c1ccc(CN2CCOCC2)cc1 [Luminespib] (partner 0.01 µM)
In outline: (§1)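 Values are medians from duplicate plates. Each reflects relative viability, defined as the nuclei count of treated wells over that of vehicle wells. Lung cancer cell lines in 1536-well plates were pin-tool dosed one day after seeding with one drug alone or with a fixed anchor-drug dose plus five library-drug doses (not always all listed) in √10 steps, then fixed, stained and imaged at 4× after 5 days.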

Compound in test [2]: CC(C)N(CCCNC(=O)Nc1ccc(C(C)(C)C)cc1)C[C@H]1O[C@@H](n2ccc3c(N)ncnc32)[C@H](O)[C@@H]1O + CC1(C)CCC(c2ccc(Cl)cc2)=C(CN2CCN(c3ccc(C(=O)NS(=O)(=O)c4ccc(N[C@H](CCN5CCOCC5)CSc5ccccc5)c(S(=O)(=O)C(F)(F)F)c4)cc3)CC2)C1 [Navitoclax] (partner 0.5 µM)
In short, it runs like this:
as §1

Compound in test [3]: CC(C)N(CCCNC(=O)Nc1ccc(C(C)(C)C)cc1)C[C@H]1O[C@@H](n2ccc3c(N)ncnc32)[C@H](O)[C@@H]1O + Cc1nc(Nc2ncc(C(=O)Nc3c(C)cccc3Cl)s2)cc(N2CCN(CCO)CC2)n1 [Dasatinib] (partner 0.075 µM)
In short, it runs like this: as §1

Compound in test [4]: CC(C)N(CCCNC(=O)Nc1ccc(C(C)(C)C)cc1)C[C@H]1O[C@@H](n2ccc3c(N)ncnc32)[C@H](O)[C@@H]1O + NC(=O)Nc1cc(-c2cccc(F)c2)sc1C(=O)N[C@H]1CCCNC1 [AZD7762] (partner 0.2 µM)
In short, it runs like this:
as §1

For the cell line NCI-H3122, the relative viability in test [1] (first compound 0.08 µM) came out at 0.0976; in test [1] (first compound 0.253 µM), 0.0883; in test [1] (first compound 0.8 µM) it was 0.117; in test [1] (first compound 2.53 µM), 0.0934; in test [1] (first compound 8 µM) it was 0.102; in test [2] (first compound 0.08 µM), 1.03. The relative viability in test [2] (first compound 0.253 µM) came out at 0.997; in test [2] (first compound 0.8 µM), 1.04; in test [2] (first compound 2.53 µM) it was 0.985; in test [2] (first compound 8 µM), 0.931; in test [3] (first compound 0.08 µM), 0.696; in test [3] (first compound 0.253 µM) it was 0.814. The relative viability in test [3] (first compound 0.8 µM) is 0.559; in test [3] (first compound 2.53 µM), 0.786; in test [3] (first compound 8 µM), 0.739; in test [4] (first compound 0.08 µM), 0.967; in test [4] (first compound 0.253 µM), 1.03; in test [4] (first compound 0.8 µM), 1.02. The relative viability came to 0.907 in test [4] (first compound 2.53 µM) and 0.959 in test [4] (first compound 8 µM).

Regarding PC-3 [JPC-3], the relative viability turned out to be 0.699 in test [1] (first compound 0.08 µM); 0.704 in test [1] (first compound 0.253 µM); 0.779 in test [1] (first compound 0.8 µM); 0.71 in test [1] (first compound 2.53 µM); 0.683 in test [1] (first compound 8 µM); 0.784 in test [2] (first compound 0.08 µM). In addition, the relative viability in test [2] (first compound 0.253 µM) came out at 0.752; in test [2] (first compound 0.8 µM), 0.807; in test [2] (first compound 2.53 µM) it was 0.797; in test [2] (first compound 8 µM), 0.7; in test [3] (first compound 0.08 µM), 0.921; in test [3] (first compound 0.253 µM) it was 0.971. Also, the relative viability in test [3] (first compound 0.8 µM) was 0.884; in test [3] (first compound 2.53 µM) it was 0.892; in test [3] (first compound 8 µM) it was 0.868; in test [4] (first compound 0.08 µM) it was 0.759; in test [4] (first compound 0.253 µM) it was 0.81; in test [4] (first compound 2.53 µM), 0.794. In addition, the relative viability in test [4] (first compound 8 µM) is 0.872.

On to PC-14, for which the relative viability came to 0.109 in test [1] (first compound 0.08 µM); 0.24 in test [1] (first compound 0.253 µM); 0.213 in test [1] (first compound 0.8 µM); 0.175 in test [1] (first compound 2.53 µM); 0.181 in test [1] (first compound 8 µM); 1 in test [2] (first compound 0.08 µM). Also, the relative viability in test [2] (first compound 0.253 µM) worked out at 0.996; in test [2] (first compound 0.8 µM), 0.946; in test [2] (first compound 2.53 µM) it was 1.03; in test [2] (first compound 8 µM), 0.847; in test [3] (first compound 0.08 µM), 0.223; in test [3] (first compound 0.253 µM), 0.292. Further, the relative viability in test [3] (first compound 0.8 µM) was determined as 0.233; in test [3] (first compound 2.53 µM) it was 0.247; in test [3] (first compound 8 µM), 0.275; in test [4] (first compound 0.08 µM) it was 0.321; in test [4] (first compound 0.253 µM), 0.364; in test [4] (first compound 0.8 µM) it was 0.401. The figures for the relative viability in test [4] (first compound 2.53 µM) and in test [4] (first compound 8 µM) were 0.274 and 0.287, respectively.

Turning to RERF-LC-KJ, the relative viability in test [1] (first compound 0.08 µM) worked out at 1.2; in test [1] (first compound 0.253 µM), 1.22; in test [1] (first compound 0.8 µM), 1.33; in test [1] (first compound 2.53 µM), 1.18; in test [1] (first compound 8 µM), 1.19; in test [2] (first compound 0.08 µM), 0.717. Besides, the relative viability is 1.06 in test [2] (first compound 0.253 µM); 1.03 in test [2] (first compound 0.8 µM); 0.931 in test [2] (first compound 2.53 µM); 0.822 in test [2] (first compound 8 µM); 0.837 in test [3] (first compound 0.08 µM); 0.888 in test [3] (first compound 0.253 µM). Also, the relative viability in test [3] (first compound 0.8 µM) stood at 0.79; in test [3] (first compound 2.53 µM), 0.778; in test [3] (first compound 8 µM), 0.799; in test [4] (first compound 0.08 µM), 1.09; in test [4] (first compound 0.253 µM), 0.954; in test [4] (first compound 0.8 µM), 0.867. Further, the relative viability came out at 0.981 in test [4] (first compound 2.53 µM) and 0.84 in test [4] (first compound 8 µM).
